From patent US20090226395A1, “Pharmaceutical compositions of beta-lapachone and beta-lapachone analogs with improved tumor targeting potential” (ArQule, Inc., priority 2004, published 2009)

What was measured:
DLD-1 cells = experiment: MTS cell viability assay, DLD-1 cells; format: cell-based
Protocol: (§1) Cell viability is determined by measuring the activity of dehydrogenase enzymes in metabolically active cells using a tetrazolium compound, MTS. The assay is performed as described in Promega Technical Bulletin No. 169 (CellTiter 96 Aqueous Non-Radioactive Cell Proliferation Assay). Two cell lines, DLD-1 and NCM-460 are assayed (see, e.g., Table 2). Cells are maintained at 37° C., 5% CO2. Adherent cells are maintained DMEM media (4.5 g/L glucose) supplemented with 15% heat-inactivated FBS, 10 mM L-glutamine, and 10 mM Hepes pH 7.5. Suspension cells are maintained in RPMI 1640 media, supplemented with 10% heat-inactivated FBS and 10 mM Hepes pH 7.5. […] Candidate compounds, including the polymer-modified therapeutics to be tested, are serially diluted in the indicated solvents are, further diluted in cell culture media, and then added to cells. […] MTS stock solution (MTS 2 gm/L, PMS […] in PBS) is added to the cells (final concentration MTS […] and PMS 7.67 mg/L) and incubated for 4 hours. […] The IC50 is defined as the concentration of compound that results in a 50% reduction in the number of viable cells as compared to control wells treated with DMSO only (0.33%) and 0.3% SDS, and is calculated using non-linear regression analysis.

human cancer cell lines = conditions: single agent; typical range; read-out: antineoplastic activity against human cancer cell lines (IC50); cited from earlier work
[1] = system: human peripheral blood mononuclear cells (PBMC); conditions: cited from earlier work
NCM-460 cells = experiment: MTS cell viability assay, NCM-460 cells; format: cell-based
Protocol: as §1

[2] = molecular target: human DNA Topoisomerases II (Homo sapiens, UniProt P11388); conditions: cited from earlier work
Chain of human DNA Topoisomerases II (P11388 whole entry): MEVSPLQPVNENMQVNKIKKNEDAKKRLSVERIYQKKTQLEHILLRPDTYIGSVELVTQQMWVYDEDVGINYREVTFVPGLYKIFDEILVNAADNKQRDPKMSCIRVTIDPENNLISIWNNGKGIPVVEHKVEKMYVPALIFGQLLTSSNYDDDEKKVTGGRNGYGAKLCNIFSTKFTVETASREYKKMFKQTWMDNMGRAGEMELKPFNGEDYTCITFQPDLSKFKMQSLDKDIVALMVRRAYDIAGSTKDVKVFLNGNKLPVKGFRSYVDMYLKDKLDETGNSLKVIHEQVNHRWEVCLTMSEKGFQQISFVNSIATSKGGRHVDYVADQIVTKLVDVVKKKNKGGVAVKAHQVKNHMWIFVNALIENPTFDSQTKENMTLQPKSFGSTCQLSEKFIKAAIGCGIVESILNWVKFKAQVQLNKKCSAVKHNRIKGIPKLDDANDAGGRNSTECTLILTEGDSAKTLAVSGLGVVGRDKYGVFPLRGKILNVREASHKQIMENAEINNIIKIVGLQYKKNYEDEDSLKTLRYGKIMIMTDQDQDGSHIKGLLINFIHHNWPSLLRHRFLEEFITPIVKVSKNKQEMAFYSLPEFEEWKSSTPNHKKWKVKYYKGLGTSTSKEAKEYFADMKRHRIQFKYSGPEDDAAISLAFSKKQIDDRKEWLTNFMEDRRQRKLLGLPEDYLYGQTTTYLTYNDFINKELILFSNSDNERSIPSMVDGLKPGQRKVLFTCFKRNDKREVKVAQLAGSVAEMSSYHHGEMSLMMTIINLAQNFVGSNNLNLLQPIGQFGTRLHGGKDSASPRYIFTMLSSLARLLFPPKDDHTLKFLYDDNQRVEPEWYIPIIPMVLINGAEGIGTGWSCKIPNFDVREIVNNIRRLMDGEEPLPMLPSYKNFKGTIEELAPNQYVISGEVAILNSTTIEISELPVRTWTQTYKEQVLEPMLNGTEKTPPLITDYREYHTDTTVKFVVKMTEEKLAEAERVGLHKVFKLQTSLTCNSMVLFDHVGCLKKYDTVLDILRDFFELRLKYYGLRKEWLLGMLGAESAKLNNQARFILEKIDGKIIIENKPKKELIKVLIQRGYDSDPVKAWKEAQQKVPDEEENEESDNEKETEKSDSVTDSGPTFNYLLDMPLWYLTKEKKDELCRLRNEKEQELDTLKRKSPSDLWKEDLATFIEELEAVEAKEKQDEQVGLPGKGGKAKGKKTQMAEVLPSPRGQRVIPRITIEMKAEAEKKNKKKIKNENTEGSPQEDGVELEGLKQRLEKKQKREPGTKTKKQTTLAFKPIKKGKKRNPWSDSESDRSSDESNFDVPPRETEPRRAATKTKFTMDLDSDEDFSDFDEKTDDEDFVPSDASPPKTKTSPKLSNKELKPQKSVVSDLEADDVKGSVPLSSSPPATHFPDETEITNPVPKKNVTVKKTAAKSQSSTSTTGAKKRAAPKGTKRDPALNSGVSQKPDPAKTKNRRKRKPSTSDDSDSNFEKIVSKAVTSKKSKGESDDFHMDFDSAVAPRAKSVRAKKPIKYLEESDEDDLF

[3] = molecular target: T1, human DNA Topoisomerases I (Homo sapiens, UniProt P11387); conditions: cited from earlier work
T1 sequence (P11387 1-765): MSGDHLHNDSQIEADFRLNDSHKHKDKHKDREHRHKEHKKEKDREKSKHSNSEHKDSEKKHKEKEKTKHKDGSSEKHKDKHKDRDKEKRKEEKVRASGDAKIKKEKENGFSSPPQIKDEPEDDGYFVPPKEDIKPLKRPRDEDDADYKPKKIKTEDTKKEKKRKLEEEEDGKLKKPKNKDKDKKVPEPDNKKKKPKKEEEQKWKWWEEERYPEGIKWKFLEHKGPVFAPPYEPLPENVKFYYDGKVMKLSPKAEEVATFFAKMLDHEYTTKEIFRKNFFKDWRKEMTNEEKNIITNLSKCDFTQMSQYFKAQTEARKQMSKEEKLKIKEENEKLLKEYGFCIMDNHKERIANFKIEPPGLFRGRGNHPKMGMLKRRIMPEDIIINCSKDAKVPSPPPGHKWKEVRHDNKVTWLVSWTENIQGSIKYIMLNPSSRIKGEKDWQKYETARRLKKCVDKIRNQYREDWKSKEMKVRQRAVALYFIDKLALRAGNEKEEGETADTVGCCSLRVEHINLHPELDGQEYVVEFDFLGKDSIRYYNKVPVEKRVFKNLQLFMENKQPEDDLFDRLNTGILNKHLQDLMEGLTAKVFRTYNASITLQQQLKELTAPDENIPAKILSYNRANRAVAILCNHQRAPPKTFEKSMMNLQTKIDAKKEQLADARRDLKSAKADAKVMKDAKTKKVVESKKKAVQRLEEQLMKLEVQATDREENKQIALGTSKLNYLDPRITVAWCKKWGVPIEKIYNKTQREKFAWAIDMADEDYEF

[4] = Hydrolytic release of β-lapachone or ketal from poly-L-glutamate conjugates, monitored by HPLC; format: physicochemical
Text: […] The complete release of 2,2-dimethyl-3,4-dihydro-2H-benzo[h]chromene-5,6-dione from the conjugate is achieved within 2-3 days as monitored by HPLC. In addition to the 2,2-dimethyl-3,4-dihydro-2H-benzo[h]chromene-5,6-dione peak, two additional peaks are detected in the HPLC chromatogram. These peaks are believed to be products of the degradation of 2,2-dimethyl-3,4-dihydro-2H-benzo[h]chromene-5,6-dione and an alternate hydrolysis product of conjugate. The concentration of released 2,2-dimethyl-3,4-dihydro-2′-1-benzo[h]chromene-5,6-dione is calculated by comparing the peak areas with the previously obtained calibration curve of 2,2-dimethyl-3,4-dihydro-2H-benzo[h]chromene-5,6-dione standard. […] Loading on the polymer is then calculated as follows: […]
The conjugate is dissolved in water at a concentration of about 0.3 mg/ml and sonicated to facilitate dissolution. […] The concentration of released 2,2-dimethyl-3,4-dihydro-2H-benzo[h]chromene-5,6-dione is determined by HPLC and the quantity calculated by comparing the peak areas with a previously obtained calibration curve of 2,2-dimethyl-3,4-dihydro-2H-benzo[h]chromene-5,6-dione standard, as described above in Example 10. […]

IC50 (DLD-1 cells; Homo sapiens, DLD-1, incubation time 20 hours) | IC50 (DLD-1 cells; Homo sapiens, DLD-1, incubation time 72 hours) | Compound | IC50 (human cancer cell lines) | cytotoxic effects on normal fresh or proliferating human PBMC [1] | IC50 (NCM-460 cells; Homo sapiens, NCM460, incubation time 20 hours) | IC50 (NCM-460 cells; Homo sapiens, NCM460, incubation time 72 hours) | in vitro inhibition of human DNA Topoisomerase II [2] | in vitro inhibition of human DNA Topoisomerase I [3] | IC50 (DLD-1 cells; incubation time 20 hours) | IC50 (DLD-1 cells; incubation time 72 hours) | IC50 (NCM-460 cells; incubation time 20 hours) | IC50 (NCM-460 cells; incubation time 72 hours) | time for hydrolysis of β-lapachone from the conjugate ([4]; pH 11.4) | time to complete release of β-lapachone from the conjugate ([4]; phosphate buffer pH 9.6, about 0.1 mg/ml)
3.13 µM | 1.71 µM | CC1(C)CCC2=C(O1)c1ccccc1C(=O)C2=O [β-lapachone, 3,4-dihydro-2,2-dimethyl-2H-naphtho[1,2-b]pyran-5,6-dione, reference compound] | 1 to 10 µM | No cytotoxic effects were observed | 8.19 µM | 3.25 µM | potent in vitro inhibition | potent in vitro inhibition |  |  |  |  |  | 
 |  | 5-(acetyloxy)-2,2-dimethyl-3,4-dihydro-2H-benzo[h]chromen-6-yl glycinate γ-poly-L-glutamate |  |  |  |  |  |  | 4.42 µM | 1.39 µM | 8.12 µM | 3.66 µM | 20 min | 2 to 3 days
 |  | (2,2-dimethyl-5-oxo-3,4-dihydro-2H,5H-spiro[benzo[h]chromene-6,2′-[1,3]dioxolan]-4′-yl)methyl γ-poly-L-glutamate sodium |  |  |  |  |  |  | > 100 µM | > 100 µM | > 100 µM | > 100 µM |  | 
